Test results: patent US9863966B2 (priority 2012, dated 2018)

What was measured:
[1] = cited from earlier work
[2] = cited from earlier work; remark: listed apart in the source
[3] = system: monoclonal antibody from hybridoma cell line NM4.3F5.C10.B7.B2.B2.C4; assay type: binding, sheep
[4] = cited from earlier work; for plasma elimination half-life: Demerol Prescribing Information datasheet; for half-life: Latta et al., 2002

SMILES	% Cross Reactivity [3]	other results
CCOC(=O)C1(c2ccccc2)CCN(C)CC1 [Meperidine]	102.5%	potency compared to morphine (times less potent) ([1]; Latta et al., 2002): 7-10 times; daily dose reported to cause grand mal seizures ([2]; as low as, Latta et al., 2002): ≥ 260 mg; dose reported as causing muscle twitches or tremors ([2]; as low as, Latta et al., 2002): ≥ 46 mg per day; eliminated in the form of normeperidine ([4]; Baselt, 2008): around 17%; excreted unchanged in urine ([4]; Baselt, 2008): About 7%; plasma elimination half-life [4]: 3 to 4 h; half-life [4]: 3 to 6 h; fraction reaching systematic circulation (first-pass metabolism) ([4]; in vivo): around 50%; time of peak plasma concentrations after administration ([4]; intramuscular injection): 1 to 2 h; administered dose excreted in urine ([4]; within 24 hours, Moffat et al., 2003): Approximately 70%
CCCC(C)(COC(N)=O)COC(N)=O [Meprobamate]	<1%	–
CN1CC[C@]23CCCC[C@H]2[C@H]1Cc1ccc(O)cc13 [Levorphanol]	<1%	–
Cc1ccc(-c2nc3ccc(C)cn3c2CC(=O)N(C)C)cc1 [Zolpidem]	<1%	–
CC(C)=CCN1CCC2(C)c3cc(O)ccc3CC1C2C (stereo not shown) [Pentazocine]	<1%	–
CCOC(=O)C1(c2ccccc2)CCNCC1 [Normeperidine]	100%	analgesic effectiveness relative to parent compound ([1]; relative to meperidine): half as effective; convulsant activity relative to parent compound ([2]; relative to meperidine): more active as a convulsant; neurotoxic potential relative to parent compound ([2]; relative to meperidine): up to 3 times; IC50 (antibody sensitivity) [3]: about 0.5 ng/ml; plasma elimination half-life [4]: 15 to 20 h; half-life [4]: 14 to 48 h
Oc1ccc2c3c1O[C@H]1[C@@H](O)CC[C@@]4(O)[C@@H](C2)N(CC2CCC2)CC[C@]314 [Nalbuphine]	<1%	–
CCC(=O)C(CC(C)N(C)C)(c1ccccc1)c1ccccc1 (stereo not shown) [Methadone]	<1%	–
COc1ccc2c3c1O[C@H]1C(=O)CC[C@@]4(O)[C@@H](C2)N(C)CC[C@]314 [Oxycodone]	<1%	–
CN1CCN(C(=O)OC2c3nccnc3C(=O)N2c2ccc(Cl)cn2)CC1 (stereo not shown) [Zopiclone]	<1%	–
COc1ccc2c3c1O[C@H]1C(=O)CC[C@H]4[C@@H](C2)N(C)CC[C@]314 [Hydrocodone]	<1%	–
O=C(O)[C@H]1O[C@@H](OCC(Cl)(Cl)Cl)[C@H](O)[C@@H](O)[C@@H]1O [Urochloralic Acid]	<1%	–
COc1ccc2c3c1O[C@H]1[C@@H](O)C=C[C@H]4[C@@H](C2)N(C)CC[C@@]341 [Codeine]	<1%	–
CCO[C@@H]1O[C@H](C(=O)O)[C@@H](O)[C@H](O)[C@H]1O [Ethyl-Glucuronide]	<1%	–
NC1(c2ccccc2Cl)CCCCC1=O (stereo not shown) [Norketamine]	<1%	–
CCN(C(C)=O)c1cccc(-c2ccnc3c(C#N)cnn23)c1 [Zaleplon]	<1%	–
CN1CC[C@]23c4c5ccc(O)c4O[C@H]2C(=O)CC[C@@]3(O)[C@H]1C5 [Oxymorphone]	<1%	–
O=C(O)C(O)C(O)C(=O)O.Oc1ccc2c(c1)[C@@]13CCCC[C@@]1(O)[C@@H](C2)N(CC1CCC1)CC3 [Butorphanol Tartrate]	<1%	–
